Laboratory results taken from ChEMBL document CHEMBL3352100, “Visible light-induced nitric oxide release from a novel nitrobenzene derivative cross-conjugated with a coumarin fluorophore” (Bioorg Med Chem Lett, 2014).
Active and inactive are the calls of the source. The rule behind the calls is not given here.

Assays:
[1] = Cellular uptake in human HCT116 cell cytoplasm at 100 uM by confocal fluorescence microscopy; assay type: ADME, cell-based; conditions: hct-116, 100 µM
[2] = Induction of nitric oxide release in potassium phosphate buffer at pH 7.35 at 500 uM photoirradiated with 190 mW/cm'2 light for 15 mins by LC/ESI-MS analysis in presence of Fe2+/MGD2 complex; assay type: physicochemical; conditions: pH 7.35, 0.25 h
HCT-116 = assay: Induction of nitric oxide release in human HCT116 cells at 25 uM incubated for 3 hrs followed by […] irradiation by DAR-4M/AM staining-based fluorescence microscopy relative to control; assay type: functional, cell-based
[3] = Induction of nitric oxide release in potassium phosphate buffer at pH 7.35 at 100 uM photoirradiated with 15 mW/cm'2 light for 10 mins by spectrometric analysis in presence of Fe2+/MGD2 complex; assay type: physicochemical; conditions: pH 7.35, 10 min
[4] = Induction of nitric oxide release in potassium phosphate buffer at pH 7.35 at 100 uM photoirradiated with 180 mW/cm'2 light for 15 mins by LC/ESI-MS analysis in presence of Fe2+/MGD2 complex; assay type: physicochemical; conditions: pH 7.35, 0.25 h

Cc1cc(/C=C/c2cc(=O)oc3cc(O)c(Br)cc23)cc(C)c1[N+](=O)[O-]
Drug uptake [1]: Active
Activity [2]: Active
Activity (HCT-116): Active
Activity [3]: Active

CCN(CC)c1ccc2c(C)c(/C=C/c3cc(C)c([N+](=O)[O-])c(C)c3)c(=O)oc2c1
Activity [4]: Not Active
